Reference: ChEMBL document CHEMBL1201862, “PubChem BioAssay data set” (2004)
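Following 48 hours of exposure in 96-well plates, responses at five concentrations were used to interpolate endpoints linearly. The concentration for 50% growth inhibition is given as GI50.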 Activity calls are given as the source filed them. Cut-off read from the data, not from the text of the source: active = GI50 up to about 1.1 µM and inactive = higher.

Assays:
Test in all cases: inhibition of tumour cell growth, NCI panel, 48 h
A549 = tested on: A549
ACHN = tested on: ACHN
HCT-116 = tested on: HCT-116
HL-60 = tested on: HL-60
HOP-62 = tested on: HOP-62
K562 = tested on: K562
MOLT-4 = tested on: MOLT-4
NCI-H23 = tested on: NCI-H23
NCI-H522 = tested on: NCI-H522
OVCAR-5 = tested on: OVCAR-5
SF-268 = tested on: SF-268
SF-295 = tested on: SF-295
SNB-19 = tested on: SNB-19
SNB-75 = tested on: SNB-75
UACC-62 = tested on: UACC-62
BT-549 = tested on: BT-549
MCF7 = tested on: MCF7
MDA-MB-435 = tested on: MDA-MB-435
NCI/ADR-RES = tested on: NCI/ADR-RES

Measured: GI50

CCCCNC(=O)NNC(=O)c1cc(/C=C/c2cccc([N+](=O)[O-])c2)ncn1
inactive: A549 > 100 µM | ACHN > 100 µM | HCT-116 20 µM | HL-60 > 100 µM | HOP-62 > 100 µM | K562 > 100 µM | MOLT-4 > 100 µM | NCI-H23 > 100 µM | NCI-H522 > 100 µM | OVCAR-5 > 100 µM | SF-268 > 100 µM | SF-295 > 100 µM | SNB-19 > 100 µM | SNB-75 > 100 µM | UACC-62 > 100 µM

O=C(Nc1ccc(C(F)(F)F)cc1[N+](=O)[O-])C(=O)C(C(=O)c1ccc2ccccc2c1)C1OC(=O)c2ccccc21 (stereo not given)
inactive: A549 8.51 µM | ACHN 13.3 µM | HCT-116 4.36 µM | HL-60 8.28 µM | HOP-62 5.74 µM | K562 5.57 µM | MOLT-4 2.26 µM | NCI-H23 5.31 µM | NCI-H522 7.11 µM | OVCAR-5 13.3 µM | SF-268 4.16 µM | SF-295 4.85 µM | SNB-19 8.51 µM | SNB-75 6.97 µM | UACC-62 5.6 µM

CCN(CC)CCNC(=O)c1ccccc1NC(=O)C(=O)Nc1ccccc1C(=O)NCCN(CC)CC
inactive: A549 > 100 µM | ACHN 92.3 µM | HCT-116 17.5 µM | HL-60 15.2 µM | HOP-62 > 100 µM | K562 16.4 µM | MOLT-4 30.2 µM | NCI-H23 > 100 µM | NCI-H522 39.2 µM | OVCAR-5 94 µM | SF-268 > 100 µM | SF-295 42.5 µM | SNB-19 > 100 µM | SNB-75 47 µM | UACC-62 > 100 µM

CC(C)=C[C@H]1CCC2(OCCO2)[C@]1(C)CO
inactive: A549 > 100 µM | ACHN > 100 µM | BT-549 > 100 µM | HCT-116 > 100 µM | MCF7 > 100 µM | MDA-MB-435 > 100 µM | NCI-H23 > 100 µM | NCI-H522 > 100 µM | NCI/ADR-RES > 100 µM | OVCAR-5 > 100 µM | SF-268 > 100 µM | SF-295 > 100 µM | SNB-19 > 100 µM | SNB-75 > 100 µM

CC(=O)OCC1OC(n2c(-c3ccccc3)c(C(C)=O)c(-c3cccc4ccccc34)c(C#N)c2=S)C(OC(C)=O)C(OC(C)=O)C1OC(C)=O (stereo not given)
inactive: A549 > 100 µM | ACHN > 100 µM | HCT-116 > 100 µM | HL-60 > 100 µM | HOP-62 > 100 µM | K562 > 100 µM | MCF7 > 100 µM | MDA-MB-435 > 100 µM | MOLT-4 > 100 µM | NCI-H23 > 100 µM | NCI-H522 > 100 µM | NCI/ADR-RES > 100 µM | OVCAR-5 > 100 µM | SF-268 > 100 µM | SF-295 > 100 µM | SNB-19 > 100 µM

COS(=O)(=O)OCCC(NC(=O)OCc1ccccc1)C(=O)OCc1ccccc1 (stereo not given)
inactive: A549 > 100 µM | ACHN > 100 µM | HCT-116 > 100 µM | HL-60 53.3 µM | HOP-62 > 100 µM | K562 > 100 µM | MOLT-4 > 100 µM | NCI-H23 > 100 µM | NCI-H522 > 100 µM | OVCAR-5 > 100 µM | SF-268 > 100 µM | SF-295 > 100 µM | SNB-19 > 100 µM | SNB-75 71.6 µM | UACC-62 > 100 µM

Cc1ccccc1C(=O)Oc1ccc(O)cc1
inactive: A549 > 100 µM | ACHN > 100 µM | HCT-116 > 100 µM | HL-60 > 100 µM | HOP-62 > 100 µM | K562 > 100 µM | MOLT-4 > 100 µM | NCI-H23 > 100 µM | NCI-H522 > 100 µM | OVCAR-5 > 100 µM | SF-268 > 100 µM | SF-295 > 100 µM | SNB-19 > 100 µM | SNB-75 > 100 µM | UACC-62 > 100 µM

N#CCCN(c1ccc(C=O)cc1)S(=O)(=O)c1ccccc1
inactive: A549 > 100 µM | ACHN > 100 µM | HCT-116 > 100 µM | HL-60 > 100 µM | HOP-62 > 100 µM | K562 > 100 µM | MOLT-4 > 100 µM | NCI-H522 > 100 µM | OVCAR-5 > 100 µM | SF-268 > 100 µM | SF-295 > 100 µM | SNB-19 > 100 µM | SNB-75 61.9 µM | UACC-62 > 100 µM

CC(C)(C)C1CCC(=O)C(C(O)CC2CC(=O)N(c3ccccc3)C(=O)C2)C1 (stereo not given)
inactive: A549 > 100 µM | ACHN > 100 µM | HCT-116 > 100 µM | HL-60 > 100 µM | HOP-62 > 100 µM | K562 > 100 µM | MOLT-4 54.5 µM | NCI-H23 > 100 µM | NCI-H522 50.4 µM | OVCAR-5 > 100 µM | SF-268 81.5 µM | SF-295 > 100 µM | SNB-19 > 100 µM | SNB-75 > 100 µM | UACC-62 > 100 µM

CCOC(=O)C(NC(=O)C(CCCCNP(=O)(OCC)OCC)NC(=O)C(C)NC(C)=O)C(C)C (stereo not given)
inactive: A549 > 100 µM | ACHN > 100 µM | BT-549 > 100 µM | HCT-116 > 100 µM | HL-60 > 100 µM | HOP-62 > 100 µM | K562 > 100 µM | MCF7 > 100 µM | MDA-MB-435 > 100 µM | MOLT-4 > 100 µM | NCI-H23 > 100 µM | NCI/ADR-RES > 100 µM | OVCAR-5 > 100 µM | SF-268 > 100 µM | SF-295 > 100 µM | SNB-19 > 100 µM | SNB-75 > 100 µM

Cc1cc(O)nc(CNC(=O)Cc2ccccc2)n1
inactive: A549 > 100 µM | ACHN > 100 µM | HL-60 > 100 µM | HOP-62 > 100 µM | K562 > 100 µM | MOLT-4 > 100 µM | NCI-H23 > 100 µM | NCI-H522 > 100 µM | OVCAR-5 > 100 µM | SF-268 > 100 µM | SF-295 > 100 µM | SNB-19 > 100 µM | SNB-75 > 100 µM | UACC-62 > 100 µM

FC(F)(F)c1ccc(/C=N/C23CC4CC(CC(C4)C2)C3)cc1
inactive: A549 > 100 µM | ACHN > 100 µM | HCT-116 > 100 µM | HL-60 > 100 µM | HOP-62 > 100 µM | K562 > 100 µM | MOLT-4 > 100 µM | NCI-H23 > 100 µM | NCI-H522 > 100 µM | OVCAR-5 > 100 µM | SF-268 > 100 µM | SF-295 > 100 µM | SNB-19 > 100 µM | SNB-75 > 100 µM | UACC-62 > 100 µM

COC(=O)/C(=N\NC(N)=O)C(C(=O)C(=O)Nc1ccccc1C(=O)OC)c1nc2ccc(C(=O)c3ccccc3)cc2nc1O (stereo not given)
inactive: A549 > 100 µM | ACHN > 100 µM | HCT-116 > 100 µM | HL-60 > 100 µM | HOP-62 > 100 µM | K562 > 100 µM | MOLT-4 > 100 µM | NCI-H23 > 100 µM | NCI-H522 > 100 µM | OVCAR-5 > 100 µM | SF-268 > 100 µM | SF-295 > 100 µM | SNB-19 > 100 µM | SNB-75 > 100 µM | UACC-62 > 100 µM
